Measured values: patent publication US8697662B2, “Methods for treating Kaposi sarcoma” (PTC Therapeutics, Inc., priority 2009, dated 2014)

Experiments:
[1] = In vitro plasma protein binding of 14C-radiolabeled Compound #10; format: in vitro ADME, mice, rats, dogs, monkeys, and humans; details: 0.05 to 50 μg/mL
CYP2D6 = molecular target: T1, CYP2D6 (Homo sapiens, UniProt P10635); experiment: CYP inhibition in human hepatic microsomes or recombinant isoenzymes: CYP2D6; format: in vitro ADME
T1 construct: host or cells: human hepatic microsomes or human recombinant isoenzymes
Source text: (§1) It is possible that in certain clinical trial subjects, such agents may need to be adjusted for dosing or replaced by alternative agents that are not metabolized by CYP2D6, particularly when such agents may have a low therapeutic index.

[2] = ECG and blood pressure assessments in 7-day and 28-day dog toxicity studies; format: in vivo, beagle dogs
HT1080 xenografts [3] = experiment: BrdU labeling of tumor cells from HT1080 xenografts in vivo; parameters: species or system athymic nude mice; details: HT1080 xenografts, 1, 2, or 3 days of treatment
Procedure: (§2) Experimental Design. HT1080 cells (5×10^6 cells/mouse) were implanted subcutaneously in male athymic nude mice.
The mice were sacrificed 3 hours later, and the tumors collected. A single cell suspension was prepared from the tumor cells. The cells were permeabilized and an antibody to BrdU was used to stain cells that had entered S phase during the labeling period. The proportion of cells actively synthesizing DNA was determined by cell sorting.

in vivo = details: both, beagle, dog, po
Procedure: The L23 vehicle was used. […] All studies in the toxicology program were conducted according to GLP regulations.

MDA MB 468 xenografts = experiment: Tumor perfusion by DCE-MRI in MDA MB 468 xenografts; format: in vivo, athymic nude mice; details: 10 mg/kg oral QD
Source text: Experimental Design. Dynamic contrast-enhanced magnetic resonance imaging can be used preclinically and clinically to evaluate the anatomy of soft tissues, including the identification and accurate measurement of tumor volumes. In addition, evaluation of the intratumoral pharmacokinetics of contrast agents containing gadolinium can be used to measure vascular permeability characteristics. Coupling gadopentetate dimeglumine gadolinium to a […] like bovine serum albumin can reveal information about the necrotic (non-perfused) and non-necrotic (perfused) tumor volumes, and the percentage of vascular blood volume relative to the perfused tumor volume (known as the fractional blood volume [fBV]). Use of a […] tracer, gadopentetate dimeglumine, can reveal information regarding the volume transfer coefficient (K^trans), a variable that represents a combination of vascular permeability, vascular surface area, and blood flow.
Before each DCE-MRI scan, mice were injected intravenously with gadolinium-containing contrast dyes (bovine serum albumin-gadopentetate dimeglumine conjugate at ˜0.03 mmol/kg followed by gadopentetate dimeglumine at ˜0.2 mmol/kg). Baseline DCE-MRI measurements were taken on Day −1, test Compounds were administered on Day 0 through Day 5, and additional DCE-MRI measurements were taken on Days 1, 3, and 5. Image analyses were conducted with customized software. Total tumor volumes were measured by semi-automatically segmenting a region of interest around an anatomical image of the tumor. Tumor volumes of necrotic and non-necrotic tissues were measured by applying the same semi-automated segmentation process to a contrast dyed image. fBV and K^trans were computed using a standard Kety PK model.

HT1080 xenografts [4] = experiment: Intratumoral microvessel density (CD31 immunostain) and tumor VEGF in HT1080 xenografts; format: in vivo, athymic nude mice; details: 5 mg/kg BID oral (given as racemic mixture), 10 days
Procedure: as §2
At the end of treatment, the mice were sacrificed. Excised tumors were assayed by ELISA for VEGF content as described in Section 9.1.1.1, and were sectioned and immunostained with an anti murine CD31 antibody that is specific for endothelial cells.

CYP2C9 = molecular target: T2, CYP2C9 (Homo sapiens, UniProt P11712); experiment: CYP inhibition in human hepatic microsomes or recombinant isoenzymes: CYP2C9; format: in vitro ADME
T2 construct: host or cells: human hepatic microsomes or human recombinant isoenzymes
Source text: as §1

[5] = test system: normal human keratinocyte; experiment: ATP viability assay in keratinocytes; format: cell-based; details: any concentration tested
Procedure: Experimental Design. Nontransformed normal human keratinocyte cell cultures were established under normoxic conditions (21% oxygen). […] At the completion of treatment, cells were assessed for viability with an ATP assay and conditioned media were evaluated for VEGF protein levels by ELISA (as described in Section 9.1.1.1).

[6] = test system: SY5Y orthotopic xenografts; experiment: Orthotopic SY5Y neuroblastoma tumor model (kidney capsule), tumor weight; format: in vivo; details: 5 weeks of treatment
Source text: Experimental Design. In orthotopic tumor models, human tumor cells are implanted into the mouse in an organ that corresponds to the location from which the tumors arise. Such models may provide a better predictor of clinical efficacy than injection of tumors into the flanks of nude mice. See Hoffman, Invest. New Drugs 1999, 17(4):343-59. SY5Y neuroblastoma or SKNEP Ewing sarcoma tumor cells (1×10^6 cells/mouse) were implanted into the kidney capsule of female athymic nude mice according to published methods. See Huang et al., Proc. Natl. Acad. Sci. USA 2003, 100(13):7785-90. One week after implantation of each type of tumor, mice were divided into 2 groups and were administered a test Compound as shown in Table 21.
After 5 weeks of treatment, the mice were sacrificed, and the weights of the tumors were assessed.

CYP3A4 = molecular target: T3, CYP3A4 (Homo sapiens, UniProt P08684); experiment: CYP inhibition in human hepatic microsomes or recombinant isoenzymes: CYP3A4; format: in vitro ADME
T3 construct: host or cells: human hepatic microsomes or human recombinant isoenzymes
Source text: as §1

[7] = Cardiovascular safety pharmacology study in awake telemeterized dogs; format: in vivo, beagle dogs; details: single oral doses of 30, 60, and 120 mg/kg, male dogs
HT1080 cells = experiment: Migration of cells out of re-plated HT1080 spheroids; format: cell-based, human
Procedure: Experimental Design. […] Pictures were then taken 48 hours to assess the migration and proliferation of the cells across the well's surface.

[8] = test system: Chinese hamster ovary (CHO) cells; experiment: Chromosome aberration study in CHO cells; format: cell-based; details: with and without exogenous metabolic activation
Procedure: (§3) Genotoxicity was assessed in a battery of in vitro and in vivo studies that included a bacterial reverse mutation study, a chromosome aberration study in Chinese hamster ovary (CHO) cells, and a micronucleus study in rats by the oral route. The in vitro studies were performed in the presence and absence of an exogenous metabolic activation system.

[9] = Micronucleus study in rats by the oral route; format: in vivo
Procedure: as §3

T1 sequence (P10635 whole entry): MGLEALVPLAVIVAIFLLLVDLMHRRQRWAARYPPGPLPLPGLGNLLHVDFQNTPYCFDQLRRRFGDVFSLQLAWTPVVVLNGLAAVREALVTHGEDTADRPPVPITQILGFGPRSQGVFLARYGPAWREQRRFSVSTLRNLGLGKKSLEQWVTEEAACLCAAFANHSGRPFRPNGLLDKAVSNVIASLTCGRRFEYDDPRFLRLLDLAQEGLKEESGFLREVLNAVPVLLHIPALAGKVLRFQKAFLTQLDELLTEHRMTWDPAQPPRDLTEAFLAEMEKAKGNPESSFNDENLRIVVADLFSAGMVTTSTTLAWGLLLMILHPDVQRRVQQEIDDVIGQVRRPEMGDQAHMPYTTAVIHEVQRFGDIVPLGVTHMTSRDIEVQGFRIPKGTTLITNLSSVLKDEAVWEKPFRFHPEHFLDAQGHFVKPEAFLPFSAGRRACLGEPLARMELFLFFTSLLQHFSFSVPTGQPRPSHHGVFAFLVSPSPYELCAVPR
T2 sequence (P11712 whole entry): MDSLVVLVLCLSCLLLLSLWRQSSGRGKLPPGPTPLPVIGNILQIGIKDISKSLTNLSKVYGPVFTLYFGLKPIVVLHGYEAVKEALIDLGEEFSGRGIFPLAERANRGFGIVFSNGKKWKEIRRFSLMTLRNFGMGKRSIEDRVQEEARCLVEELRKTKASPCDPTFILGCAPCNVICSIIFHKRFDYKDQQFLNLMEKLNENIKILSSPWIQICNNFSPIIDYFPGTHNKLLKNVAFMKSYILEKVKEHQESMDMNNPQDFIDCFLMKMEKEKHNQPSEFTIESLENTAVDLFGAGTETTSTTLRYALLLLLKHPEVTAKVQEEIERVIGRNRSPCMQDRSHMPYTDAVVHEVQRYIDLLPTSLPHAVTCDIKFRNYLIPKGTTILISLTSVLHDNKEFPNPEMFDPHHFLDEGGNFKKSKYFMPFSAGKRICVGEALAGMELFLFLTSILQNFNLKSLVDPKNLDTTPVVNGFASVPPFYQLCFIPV
T3 sequence (P08684 whole entry): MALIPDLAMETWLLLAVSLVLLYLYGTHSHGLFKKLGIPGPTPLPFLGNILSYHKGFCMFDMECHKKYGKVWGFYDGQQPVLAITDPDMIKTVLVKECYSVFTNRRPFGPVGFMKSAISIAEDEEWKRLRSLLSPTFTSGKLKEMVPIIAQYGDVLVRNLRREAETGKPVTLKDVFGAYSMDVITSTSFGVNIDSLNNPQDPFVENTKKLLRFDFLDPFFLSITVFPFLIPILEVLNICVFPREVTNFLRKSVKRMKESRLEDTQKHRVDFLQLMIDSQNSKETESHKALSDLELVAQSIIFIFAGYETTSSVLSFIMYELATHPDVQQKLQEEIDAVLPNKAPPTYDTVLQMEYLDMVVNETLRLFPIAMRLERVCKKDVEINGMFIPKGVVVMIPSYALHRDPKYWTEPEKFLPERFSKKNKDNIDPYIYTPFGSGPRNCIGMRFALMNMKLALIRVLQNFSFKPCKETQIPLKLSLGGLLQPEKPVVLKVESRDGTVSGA

With `COc1ccc(C2c3[nH]c4ccc(Cl)cc4c3CCN2C(=O)Oc2ccc(Cl)cc2)cc1` (racemic) [Compound #10] the “concentration dependence of protein binding (in words)” value [1] was “independent of concentration”, the “inhibition of CYP2D6 isoenzyme (in words)” value (CYP2D6) was “inhibits the activity” and the QTc values ([2]; males, 60 mg/kg/day, 28-day study) was “comparable to controls”. The “ECG or blood pressure results” value ([2]; through 120 mg/kg/day for 7-days and through 60 mg/kg/day for 28-days, oral) was “did not have any toxicological effects”, the “BrdU staining of tumor cells (fraction in S phase) (in words)” value (HT1080 xenografts [3]) was “increased BrdU staining” and the NOAEL at 28 days (in vivo) was 30 mg/kg/day. For the same compound, the “mean K^trans in non-necrotic tissue (in words)” value (MDA MB 468 xenografts; Day -1 to Day 5) was “decreased”, the “mean non-necrotic tumor volume (in words)” value (MDA MB 468 xenografts; Day -1 to Day 5) was “decreased” and the “mean total tumor volume (DCE-MRI), change (in words)” value (MDA MB 468 xenografts; Day -1 to Day 5) was “little mean change”. The “mean necrotic (non perfused) tumor volume (in words)” value (MDA MB 468 xenografts; significant by Day 1) was “rapidly increased”, the “mean tumor fBV in non-necrotic tissue (in words)” value (MDA MB 468 xenografts; significant vs vehicle on Day 5) was “declined after Day 3” and the “tumor vessel count (CD31 immunostain)” value (HT1080 xenografts [4]) was “unchanged”. The “inhibition of CYP2C9 (in words)” value (CYP2C9) was “No meaningful inhibition”, the “toxicity (viability, ATP assay)” value [5] was “No toxicity was observed” and the “tumor growth (tumor weight) (in words)” value [6] was “completely prevented growth”. The “inhibition of CYP3A4 (in words)” value (CYP3A4) was “No meaningful inhibition”, the “cardiovascular or electrocardiographic (including QT interval) parameters” value [7] was “no meaningful changes” and the “migration of cells out of the spheroid (in words)” value (HT1080 cells; control spheroids re-plated in the presence of 50 nM) was “blocked in their ability to migrate out of the spheroid”. The “proliferative and migratory capacity after exposure (in words)” value (HT1080 cells; three-week exposure at 50 nM, re-plated in the absence of the compound) was “does not reduce either the proliferative or the migratory capacity”, the genotoxic effects [8] was “no evidence of genotoxic effects” and the genotoxic effects [9] was “no evidence of genotoxic effects”.
